# T1: ASK1 (Arabidopsis thaliana, UniProt Q39255)
# T1 construct: fragment containing the entire coding region of ASK1 (At1g75950); expressed in transfected cells; host or cells: Saccharomyces cerevisiae strain YRG-2
# T1 sequence (Q39255 1-160): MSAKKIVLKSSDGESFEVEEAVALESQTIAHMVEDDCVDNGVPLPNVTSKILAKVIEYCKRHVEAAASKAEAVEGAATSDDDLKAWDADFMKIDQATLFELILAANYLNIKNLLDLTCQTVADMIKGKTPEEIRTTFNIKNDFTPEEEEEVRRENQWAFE
# T1 sequence (Q9SQU1 1-380 partner): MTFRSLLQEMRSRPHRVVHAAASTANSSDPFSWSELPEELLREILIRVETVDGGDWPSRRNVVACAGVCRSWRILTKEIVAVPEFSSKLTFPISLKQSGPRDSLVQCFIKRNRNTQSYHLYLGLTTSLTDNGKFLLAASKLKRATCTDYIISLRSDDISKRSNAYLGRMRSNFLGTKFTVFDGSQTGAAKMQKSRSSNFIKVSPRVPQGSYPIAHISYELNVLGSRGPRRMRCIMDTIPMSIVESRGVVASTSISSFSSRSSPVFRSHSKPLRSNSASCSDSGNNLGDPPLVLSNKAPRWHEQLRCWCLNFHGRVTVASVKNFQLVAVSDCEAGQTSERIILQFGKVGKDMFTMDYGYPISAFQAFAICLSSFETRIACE
# B1: AtTLP9: Arabidopsis TUBBY-like protein, polypeptide SEQ ID NO: 9 (protein, listed as Arabidopsis sp.)
# chain: T1 sequence (Q9SQU1 1-380 partner)
# Legend:
# AtTLP7 gene expression = settings: channel 2 treated vs channel 1 control; cited from earlier work
# AtTLP10 gene expression = settings: channel 2 treated vs channel 1 control; cited from earlier work
# Arabidopsis seeds = assay: Seed germination on media containing ABA; type: in vivo, Arabidopsis thaliana; settings: 1 μM ABA
# Experimental: (§1) All seeds of the above-described lines were surface sterilized with 70% ethanol for 30 s and then with 6% household bleach for 5 min before being washed five times with sterile water. For aseptic growth, they were plated on solid medium containing Murashige and Skoog salts (Invitrogen), vitamins (Duchefa), 0.7% phytoagar (Invitrogen), and 1% sucrose and transferred to a tissue culture room. For soil growth, seedlings were transferred into individual pots 8-10 days after germination and maintained in the growth chamber. Plants were grown at 22° C. under a 16-hr-light/8-hr-dark photoperiod aseptically or on soil.
# To determine whether the transgenic plants display altered ABA responses, the above-described lines were germinated on media containing various concentrations of ABA. Seeds collected at the same or similar times were used. After surface-sterilization, sterile seeds were suspended in 0.15% agarose, and kept in the dark at 4° C. for 3 days to break residual dormancy. The seeds were then plated on agar plates in six replicates containing no ABA or 0.25, 0.5, 0.75, or 1.0 μM ABA in 12-cm plastic petri dishes. Each agar plate was divided into seven sections, and 50 seeds of WT and AtTLP9 transgenic seeds were plated on each section. A seed was regarded as germinated when the radicle protruded through the seed coat.
# Arabidopsis seedlings = assay: Seedling growth and greening on MS agar with ABA; type: in vivo, Arabidopsis thaliana; settings: 1 μM ABA and 1% sucrose
# Experimental: as §1
# In contrast, under the same conditions, attlp9-1 and attlp9-2 plants continued to grow and about 45% of the seedlings continued to develop true leaves, although at slower rates than abi4-1 mutant does.
# ASK1 = molecular target: T1, ASK1; assay: Yeast two-hybrid analysis; type: binding; settings: AtTLP9 in pBD-GAL4 Cam, ASK1 in pAD-GAL4-2.1, yeast strain YRG-2
# Description: To test whether AtTLP could interact with ASK1, AtTLP9 was examined by the yeast two-hybrid analysis. Yeast two-hybrid vectors, pAD-GAL4-2.1 and pBD-GAL4 Cam (Stratagene, La Jolla, Calif.), were used for C-terminal GAL4 AD and BD fusion constructions, respectively. A 1.1-kb SalI-PstI fragment containing the entire coding region of AtTLP9 was cloned into the SalI-PstI site of the pBD-GAL4 Cam vector. A 480-bp EcoRI-PstI fragment containing the entire coding region of ASK1 (At1g75950) was cloned into the EcoRI-PstI site of the pAD-GAL4-2.1 vector. The yeast strain YRG-2 [MATa ura3-52 his3-200 ade2-101 lys2-801 trp1-901 leu2-3,112 ga14-542 ga180-538 LYS2::GAL1UAS-GAL1TATA-HIS3 URA3::(GAL43×17mer)-CYC1TATA-lacZ] was co-transformed with the two vectors. The Y2H analysis was performed according to the manufacturer's recommendations (Stratagene).
molecule,measurement,setting,value
O=C(O)Cc1c[nH]c2ccccc12 [IAA],Ch2/Ch1 Normalized (Mean) AtTLP7,AtTLP7 gene expression,2.21
O=C(O)Cc1cccc2ccccc12 [NAA],Ch2/Ch1 Normalized (Mean) AtTLP10,AtTLP10 gene expression,2.22
same,Ch2/Ch1 Normalized (Mean) AtTLP7,AtTLP7 gene expression,0.46
"CC1=CC(=O)CC(C)(C)[C@@]1(O)/C=C/C(C)=C\C(=O)O [ABA, Abscisic acid]",germination rate,Arabidopsis seeds; attlp9-1 and attlp9-2 mutant seeds,~50%
same,germination rate,Arabidopsis seeds; sense lines seeds (35S::AtTLP9 overexpression),less than 10%
same,seeds able to germinate,Arabidopsis seeds; wild-type seeds,about 30%
same,seedlings showing developmental arrest,Arabidopsis seedlings; 10-d-old seedlings of sense lines,90%
same,seedlings continuing to develop true leaves,Arabidopsis seedlings; attlp9-1 and attlp9-2 plants,about 45%
B1,interaction with ASK1,ASK1,physically interacts with ASK1
